Assay results published in patent US6667040B2, “Bovine footrot treatment and prevention” (University Technologies International, Inc., priority 1997, dated 2003).

Key:
Assay type in all cases: cell-based
[1] = test system: Bacteroides fragilis (7-6); assay: Penicillin G disc diffusion susceptibility test
[2] = test system: Prevotella intermedia (5-2); assay: Penicillin G disc diffusion susceptibility test; settings: with regrowth
[3] = test system: Prevotella intermedia (8-2); assay: Penicillin G disc diffusion susceptibility test; settings: with regrowth
[4] = test system: Prevotella intermedia (14-7); assay: Penicillin G disc diffusion susceptibility test
[5] = test system: Isolates of Porphyromonas levii; assay: Penicillin G susceptibility of Porphyromonas levii isolates
[6] = disc with 10 units penicillin G

CC1(C)S[C@@H]2[C@H](NC(=O)Cc3ccccc3)C(=O)N2[C@H]1C(=O)O [penicillin G]
susceptibility to penicillin ([1]; disc diffusion): clearly resistant | P2 zone of inhibition ([1]; disc with 2 units penicillin G): 0 mm | P10 zone of inhibition [1, 6]: 0 mm | P2 zone of inhibition ([2]; disc with 2 units penicillin G): 22 mm | P10 zone of inhibition [2, 6]: 28 (with regrowth) mm | P2 zone of inhibition ([3]; disc with 2 units penicillin G): 27 mm | P10 zone of inhibition [3, 6]: 35 (with regrowth) mm | P2 zone of inhibition ([4]; disc with 2 units penicillin G): 34 (with mm | regrowth within P2 zone of inhibition ([4]; disc with 2 units penicillin G, regrowth around the disc): 22 mm regrowth) | P10 zone of inhibition [4, 6]: 38 mm | regrowth within P10 zone of inhibition ([4]; disc with 10 units penicillin G, regrowth around the disc): 23 mm | susceptibility to penicillin G [5]: sensitive
